Experimental data published in patent US8697727B2, “N-substituted-heterocycloalkyloxybenzamide compounds and methods of use” (Rigel Pharmaceuticals, Inc., priority 2006, dated 2014).

Tested on: AMPK
Test: AMPK activation, enzyme-linked immunosorbent assay
Assay type: cell-based
Procedure, shortened: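 Reported in ranges of less than 1 μM, 1-10 μM, 10-20 μM, 20-50 μM, 50-100 μM, and >100 μM, the values come from a cell-based assay. There, an enzyme-linked immunosorbent assay measured the relative concentration of phosphorylated acetyl-CoA carboxylase as a readout of AMPK activity. The endpoint is the EC50 of each compound for AMPK activation.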

Row | EC50 [nM] | Compound
1 | < 1000 | O=C(NC1CCN(Cc2ccccc2)CC1)c1ccc(OC2CCN(Cc3ccc(Cl)cc3)CC2)c(F)c1 [Compound 64, N-(1-benzylpiperidin-4-yl)-4-(1-(4-chlorobenzyl)piperidin-4-yloxy)-3-fluorobenzamide]
2 | < 1000 | O=C(NC1CCN(Cc2ccccc2)CC1)c1ccc(OC2CCN(Cc3ccc(Cl)cc3)CC2)c(Cl)c1 [Compound 65, N-(1-benzylpiperidin-4-yl)-3-chloro-4-(1-(4-chlorobenzyl)piperidin-4-yloxy)benzamide]
3 | < 1000 | O=C(NC1CCN(Cc2ccc(F)cc2)CC1)c1ccc(OC2CCN(Cc3ccc(Cl)cc3)CC2)c(Cl)c1 [Compound 66, 3-chloro-4-(1-(4-chlorobenzyl)piperidin-4-yloxy)-N-(1-(4-fluorobenzyl)piperidin-4-yl)benzamide]
4 | < 1000 | N#Cc1ccc(CN2CCC(Oc3ccc(C(=O)NC4CCN(Cc5ccccc5)CC4)cc3Cl)CC2)cc1 [Compound 67, N-(1-benzylpiperidin-4-yl)-3-chloro-4-(1-(4-cyanobenzyl)piperidin-4-yloxy)benzamide]
5 | < 1000 | Cc1ccc(CN2CCC(Oc3ccc(C(=O)NC4CCN(Cc5ccc(F)cc5)CC4)cc3Cl)CC2)cc1 [Compound 68, 3-chloro-N-(1-(4-fluorobenzyl)piperidin-4-yl)-4-(1-(4-methylbenzyl)piperidin-4-yloxy)benzamide]
6 | < 1000 | O=C(NC1CCN(Cc2ccccc2)CC1)c1ccc(OC2CCN(Cc3ccc(F)c(F)c3)CC2)c(F)c1 [Compound 69, N-(1-benzylpiperidin-4-yl)-4-(1-(3,4-difluorobenzyl)piperidin-4-yloxy)-3-fluorobenzamide]
7 | < 1000 | N#Cc1ccc(CN2CCC(Oc3ccc(C(=O)NC4CCN(Cc5ccc(Cl)cc5)CC4)cc3F)CC2)cc1 [Compound 70, N-(1-(4-chlorobenzyl)piperidin-4-yl)-4-(1-(4-cyanobenzyl)piperidin-4-yloxy)-3-fluorobenzamide]
8 | < 1000 | O=C(NC1CCN(Cc2ccc(Cl)cc2)CC1)c1ccc(OC2CCN(Cc3ccc(F)c(F)c3)CC2)c(F)c1 [Compound 71, N-(1-(4-chlorobenzyl)piperidin-4-yl)-4-(1-(3,4-difluorobenzyl)piperidin-4-yloxy)-3-fluorobenzamide]
9 | < 1000 | O=C(NC1CCN(Cc2ccc(Cl)cc2)CC1)c1ccc(OC2CCN(Cc3ccc(Cl)cc3)CC2)c(F)c1 [Compound 72, N-(1-(4-chlorobenzyl)piperidin-4-yl)-4-(1-(4-chlorobenzyl)piperidin-4-yloxy)-3-fluorobenzamide]
10 | < 1000 | Cc1ccc(CN2CCC(Oc3ccc(C(=O)NC4CCN(Cc5ccc(Cl)cc5)CC4)cc3F)CC2)cc1 [Compound 73, N-(1-(4-chlorobenzyl)piperidin-4-yl)-3-fluoro-4-(1-(4-methylbenzyl)piperidin-4-yloxy)benzamide]
11 | < 1000 | O=C(NC1CCN(Cc2ccccc2)CC1)c1ccc(OC2CCN(Cc3ccc(F)c(F)c3)CC2)c(Cl)c1 [Compound 74, N-(1-benzylpiperidin-4-yl)-3-chloro-4-(1-(3,4-difluorobenzyl)piperidin-4-yloxy)benzamide]
12 | < 1000 | O=C(NC1CCN(Cc2ccccc2)CC1)c1cc(Cl)c(OC2CCN(Cc3ccc(Cl)cc3)CC2)c(Cl)c1 [Compound 75, N-(1-benzylpiperidin-4-yl)-3,5-dichloro-4-(1-(4-chlorobenzyl)piperidin-4-yloxy)benzamide]
13 | < 1000 | O=C(NC1CCN(Cc2ccccc2)CC1)c1cc(Cl)c(OC2CCN(Cc3ccc(F)c(F)c3)CC2)c(Cl)c1 [Compound 76, N-(1-benzylpiperidin-4-yl)-3,5-dichloro-4-(1-(3,4-difluorobenzyl)piperidin-4-yloxy)benzamide]
14 | < 1000 | N#Cc1ccc(CN2CCC(Oc3c(Cl)cc(C(=O)NC4CCN(Cc5ccccc5)CC4)cc3Cl)CC2)cc1 [Compound 77, N-(1-benzylpiperidin-4-yl)-3,5-dichloro-4-(1-(4-cyanobenzyl)piperidin-4-yloxy)benzamide]
15 | < 1000 | CC(C)(C)OC(=O)N1CCC(NC(=O)c2ccc(OC3CCN(Cc4ccc(C#N)cc4)CC3)cc2)CC1 [Compound 78, tert-butyl 4-(4-(1-(4-cyanobenzyl)piperidin-4-yloxy)benzamido)piperidine-1-carboxylate]
16 | > 100000 | N#Cc1ccc(CN2CCC(Oc3ccc(C(=O)NC4CCNCC4)cc3)CC2)cc1 [Compound 79, 4-(1-(4-cyanobenzyl)piperidin-4-yloxy)-N-(piperidin-4-yl)benzamide]
17 | < 1000 | O=C(NC1CCN(Cc2ccc(Cl)cc2)CC1)c1ccc(OC2CCN(Cc3ccc(Cl)c(Cl)c3)CC2)c(F)c1 [Compound 80, N-(1-(4-chlorobenzyl)piperidin-4-yl)-4-(1-(3,4-dichlorobenzyl)piperidin-4-yloxy)-3-fluorobenzamide]
18 | < 1000 | N#Cc1ccc(N2CCC(Oc3ccc(C(=O)NC4CCN(Cc5ccc(Cl)cc5)CC4)cc3F)CC2)cc1 [Compound 81, N-(1-(4-chlorobenzyl)piperidin-4-yl)-4-(1-(4-cyanophenyl)piperidin-4-yloxy)-3-fluorobenzamide]
19 | < 1000 | O=C(NC1CCN(Cc2ccccc2)CC1)c1ccc(OC2CCN(Cc3ccc(Cl)c(Cl)c3)CC2)c(F)c1 [Compound 82, N-(1-benzylpiperidin-4-yl)-4-(1-(3,4-dichlorobenzyl)piperidin-4-yloxy)-3-fluorobenzamide]
20 | < 1000 | N#Cc1ccc(CN2CCC(Oc3ccc(C(=O)NC4CCN(Cc5ccncc5)CC4)cc3)CC2)cc1 [Compound 83, 4-(1-(4-cyanobenzyl)piperidin-4-yloxy)-N-(1-(pyridin-4-ylmethyl)piperidin-4-yl)benzamide]
21 | < 1000 | O=C(NC1CCN(Cc2ccccc2)CC1)c1ccc(OC2CCN(Cc3ccc(Cl)c(Cl)c3)CC2)c(Cl)c1 [Compound 84, N-(1-benzylpiperidin-4-yl)-3-chloro-4-(1-(3,4-dichlorobenzyl)piperidin-4-yloxy)benzamide]
22 | < 1000 | N#Cc1ccc(CN2CCC(Oc3ccc(C(=O)NC4CCN(Cc5ccccn5)CC4)cc3)CC2)cc1 [Compound 85, 4-(1-(4-cyanobenzyl)piperidin-4-yloxy)-N-(1-(pyridin-2-ylmethyl)piperidin-4-yl)benzamide]
23 | < 1000 | O=C(NC1CCN(Cc2ccccc2)CC1)c1cccc(OC2CCN(c3ccccn3)CC2)c1 [Compound 86, N-(1-benzylpiperidin-4-yl)-3-(1-(pyridin-2-yl)piperidin-4-yloxy)benzamide]
24 | < 1000 | O=C(NC1CCN(Cc2ccncc2)CC1)c1cccc(OC2CCN(c3ccc(C(F)(F)F)cc3)CC2)c1 [Compound 87, N-(1-(pyridin-4-ylmethyl)piperidin-4-yl)-3-(1-(4-(trifluoromethyl)phenyl)piperidin-4-yloxy)benzamide]
25 | 1000 to 10000 | N#Cc1ccc(N2CCC(Oc3cccc(C(=O)NC4CCN(Cc5ccncc5)CC4)c3)CC2)cc1 [Compound 88, N-(1-(pyridin-4-ylmethyl)piperidin-4-yl)-3-(1-(4-cyanophenyl)piperidin-4-yloxy)benzamide]
26 | 1000 to 10000 | N#Cc1cccc(CN2CCC(Oc3cccc(C(=O)NC4CCN(Cc5ccccc5)CC4)c3)CC2)c1 [Compound 89, N-(1-benzylpiperidin-4-yl)-3-(1-(3-cyanobenzyl)piperidin-4-yloxy)benzamide]
